The text below walks through data of publication PMC11617632, “Long-range conformational changes in the nucleotide-bound states of the DEAD-box helicase Vasa” (Biophysical Journal, 2024).

Holding throughout (assay type): binding
Test [1] concerns the target T1, Vasa (Bombyx mori, UniProt O01378).
T1 construct: gene BmVLG
T1 sequence (O01378 135-564): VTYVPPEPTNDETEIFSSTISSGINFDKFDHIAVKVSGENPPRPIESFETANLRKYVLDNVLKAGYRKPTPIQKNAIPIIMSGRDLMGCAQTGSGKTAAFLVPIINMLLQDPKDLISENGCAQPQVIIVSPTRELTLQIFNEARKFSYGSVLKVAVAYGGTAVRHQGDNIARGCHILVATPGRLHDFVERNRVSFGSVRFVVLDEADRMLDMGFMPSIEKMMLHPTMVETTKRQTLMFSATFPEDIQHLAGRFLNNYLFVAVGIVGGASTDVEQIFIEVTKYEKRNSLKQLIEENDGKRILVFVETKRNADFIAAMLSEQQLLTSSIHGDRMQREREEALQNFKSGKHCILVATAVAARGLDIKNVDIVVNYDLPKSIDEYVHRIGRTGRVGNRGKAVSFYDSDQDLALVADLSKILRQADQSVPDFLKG
Description: NMR titration, 1H-13C methyl-HMQC, slow exchange.

Test [2] has as its target T2, Vasa (Bombyx mori, UniProt O01378).
T2 construct: gene BmVLG
T2 sequence (O01378 135-400): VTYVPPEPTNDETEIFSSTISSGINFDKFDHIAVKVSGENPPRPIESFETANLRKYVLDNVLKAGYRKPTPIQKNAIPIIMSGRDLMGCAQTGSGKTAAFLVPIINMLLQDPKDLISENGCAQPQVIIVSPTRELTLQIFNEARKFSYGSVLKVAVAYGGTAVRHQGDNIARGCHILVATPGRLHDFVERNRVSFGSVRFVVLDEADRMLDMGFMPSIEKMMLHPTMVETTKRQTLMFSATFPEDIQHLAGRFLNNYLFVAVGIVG
Description: NMR CSP titration, fast exchange.

The target in test [3] is T1, Vasa. Description: NMR methyl CSP titration, fast exchange (not saturated; KD inaccurate).

By Kd is commonly meant a measure of binding affinity in units of concentration. Low readings indicate tighter binding, high ones weaker binding.

As to `Nc1ncnc2c1ncn2[C@@H]1O[C@H](COP(=O)(O)OP(=O)(O)O)[C@@H](O)[C@H]1O` [ADP], binding at Vasa [1] was put at a Kd of 53 ± 15 µM.

For the molecule `Nc1ncnc2c1ncn2[C@@H]1O[C@H](COP(=O)(O)OP(=O)(O)OP(=O)(O)O)[C@@H](O)[C@H]1O` [ATP], the Kd at Vasa [2] stood at 1.6 ± 0.6 mM.

Turning to `Nc1ncnc2c1ncn2[C@@H]1O[C@H](CO[P@](=O)(O)O[P@](=O)(O)O[P@@](=O)(O)S)[C@@H](O)[C@H]1O` [ATPγS, adenosine 5′-γ-thiotriphosphate], on Vasa [3], the Kd is approximately 18.8 mM.
